Calls of active or inactive are those of the source. No cut-off for these calls is given here.
Key:
NIH3T3 = experiment: Inhibition of HIV1 env protein assessed as inhibition of env expressing african green monkey BSC1 cell fusion with mouse NIH3T3 cell expressing CXCR4 and Escherichia coli T7 at 1 ug/ml after 2.5 hrs by beta galactosidase report gene assay; conditions: Human immunodeficiency virus 1
[1] = Inhibition of HIV1 env protein assessed as inhibition of env expressing african green monkey BSC1 cell fusion with mouse NIH3T3 cell expressing CXCR4 and Escherichia coli T7 after 2.5 hrs by beta galactosidase report gene assay; conditions: Human immunodeficiency virus 1, NIH3T3, 2.5 h

Row | SMILES | Activity (NIH3T3) | IC50 [1] [µM]
1 | Cn1cc2c3c1C(=O)C(N)=CC3=[N+](C)CC2 [MAKALUVAMINE H] | Active | 5
2 | Cn1cc2c3c1C(=O)C(N)=C(Cl)C3=NCC2 [ISOBATZELLINE C] | Active | 0.2
3 | Cn1cc2c3c1C(=O)C(N)=CC3=NCC2 [MAKALUVAMINE A] | Active | 5
